According to patent US20210317134A1, “UBIQUITIN-SPECIFIC-PROCESSING PROTEASE 7 (USP7) MODULATORS AND USES THEREOF” (RAPT THERAPEUTICS, INC., priority 2019, published 2021):

Target: USP7 (Homo sapiens, UniProt Q93009)
Experiment: USP7 inhibitory potency (Table 1)
Format: biochemical

USP7, sequence (Q93009 whole entry): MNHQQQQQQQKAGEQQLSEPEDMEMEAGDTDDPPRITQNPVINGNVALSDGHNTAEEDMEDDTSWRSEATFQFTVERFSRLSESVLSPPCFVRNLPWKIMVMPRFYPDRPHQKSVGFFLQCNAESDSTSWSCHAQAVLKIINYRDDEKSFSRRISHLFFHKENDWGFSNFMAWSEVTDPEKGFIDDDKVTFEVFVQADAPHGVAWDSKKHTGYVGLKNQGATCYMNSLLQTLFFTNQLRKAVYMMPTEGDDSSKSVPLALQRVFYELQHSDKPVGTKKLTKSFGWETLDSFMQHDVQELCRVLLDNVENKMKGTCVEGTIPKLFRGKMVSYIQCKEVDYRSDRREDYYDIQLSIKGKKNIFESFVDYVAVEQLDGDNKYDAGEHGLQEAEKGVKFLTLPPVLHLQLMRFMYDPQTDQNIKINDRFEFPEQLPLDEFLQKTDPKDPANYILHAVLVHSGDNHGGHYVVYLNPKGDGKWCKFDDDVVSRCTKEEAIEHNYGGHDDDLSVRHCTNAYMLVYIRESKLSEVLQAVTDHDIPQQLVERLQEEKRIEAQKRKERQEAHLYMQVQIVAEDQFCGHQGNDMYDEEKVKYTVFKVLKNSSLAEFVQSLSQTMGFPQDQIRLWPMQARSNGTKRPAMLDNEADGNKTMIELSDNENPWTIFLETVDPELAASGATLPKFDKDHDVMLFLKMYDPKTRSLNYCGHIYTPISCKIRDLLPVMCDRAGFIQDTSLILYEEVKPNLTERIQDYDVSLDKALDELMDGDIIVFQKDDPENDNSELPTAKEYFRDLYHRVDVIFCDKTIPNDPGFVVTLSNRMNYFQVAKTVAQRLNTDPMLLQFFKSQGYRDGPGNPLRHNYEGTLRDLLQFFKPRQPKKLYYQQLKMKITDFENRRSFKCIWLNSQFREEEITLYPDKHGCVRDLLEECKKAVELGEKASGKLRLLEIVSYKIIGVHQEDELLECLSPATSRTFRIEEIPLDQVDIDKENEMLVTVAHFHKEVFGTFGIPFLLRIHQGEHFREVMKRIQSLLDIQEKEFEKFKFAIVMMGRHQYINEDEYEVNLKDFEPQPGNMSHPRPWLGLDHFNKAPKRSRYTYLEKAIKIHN

SMILES | IC50 [nM]
CCC(O)c1cc2nccc(-c3cc(Cl)cc4c3O[C@@H](c3onc5c3CNCC5)CC4)c2s1 (stereo partly drawn) [1-(7-((R)-6-chloro-2-(4,5,6,7-tetrahydroisoxazolo[4,3-c]pyridin-3-yl)chroman-8-yl)thieno[3,2-b]pyridin-2-yl)propan-1-ol] | < 1000
O=C(C1Cc2cc(Cl)cc(-c3ccnc4[nH]ccc34)c2O1)N1CCN(c2ccncc2)CC1 (centres unmarked) [(5-chloro-7-(1H-pyrrolo[2,3-b]pyridin-4-yl)-2,3-dihydrobenzofuran-2-yl)(4-(pyridin-4-yl)piperazin-1-yl)methanone] | 1000 to 10000
CCC(O)c1cc2nccc(-c3cc(Cl)cc4c3O[C@@H](c3onc5c3CNCC5)C4)c2o1 (stereo partly drawn) [drawing 1522, 1-(7-((R)-5-chloro-2-(4,5,6,7-tetrahydroisoxazolo[4,3-c]pyridin-3-yl)-2,3-dihydrobenzofuran-7-yl)furo[3,2-b]pyridin-2-yl)propan-1-ol] | < 1000
Clc1cc2c(c(-c3ccnc4[nH]ccc34)c1)OC(c1onc3c1CCNC3)C2 (centres unmarked) [3-(5-chloro-7-(1H-pyrrolo[2,3-b]pyridin-4-yl)-2,3-dihydrobenzofuran-2-yl)-4,5,6,7-tetrahydroisoxazolo[3,4-c]pyridine] | 1000 to 10000
CC(C)C(=O)NCc1cc2nccc(-c3cc(Cl)cc4c3O[C@@H](c3onc5c3CNCC5)C4)c2s1 [(R)-N-((7-(5-chloro-2-(4,5,6,7-tetrahydroisoxazolo[4,3-c]pyridin-3-yl)-2,3-dihydrobenzofuran-7-yl)thieno[3,2-b]pyridin-2-yl)methyl)isobutyramide] | < 1000
CN(C)C1CN(C(=O)[C@H]2Cc3cc(Cl)cc(-c4ccnc5ccsc45)c3O2)C1 [(R)-(5-chloro-7-(thieno[3,2-b]pyridin-7-yl)-2,3-dihydrobenzofuran-2-yl)(3-(dimethylamino)azetidin-1-yl)methanone] | < 1000
CC[C@@H](O)c1cc2nccc(-c3cc(Cl)cc4c3O[C@](C)(c3onc5c3CNCC5)C4)c2s1 [(R)-1-(7-((S)-5-chloro-2-methyl-2-(4,5,6,7-tetrahydroisoxazolo[4,3-c]pyridin-3-yl)-2,3-dihydrobenzofuran-7-yl)thieno[3,2-b]pyridin-2-yl)propan-1-ol] | < 1000
CC[C@H](O)c1cc2nccc(-c3cc(Cl)cc4c3O[C@@](C)(c3onc5c3CNCC5)C4)c2s1 [(S)-1-(7-((R)-5-chloro-2-methyl-2-(4,5,6,7-tetrahydroisoxazolo[4,3-c]pyridin-3-yl)-2,3-dihydrobenzofuran-7-yl)thieno[3,2-b]pyridin-2-yl)propan-1-ol] | < 1000
CCC(O)c1cc2ncnc(-c3cc(Cl)cc4c3O[C@@H](c3c5c(nn3C)CCC(N(C)C)C5)C4)c2s1 (stereo partly drawn) [1-(4-((2R)-5-chloro-2-(5-(dimethylamino)-2-methyl-4,5,6,7-tetrahydro-2H-indazol-3-yl)-2,3-dihydrobenzofuran-7-yl)thieno[3,2-d]pyrimidin-6-yl)propan-1-ol] | 1000 to 10000
Clc1cc2c(c(-c3ncnc4ccsc34)c1)O[C@@H](c1onc3c1CNCC3)C2 [(R)-3-(5-chloro-7-(thieno[3,2-d]pyrimidin-4-yl)-2,3-dihydrobenzofuran-2-yl)-4,5,6,7-tetrahydroisoxazolo[4,3-c]pyridine] | < 1000
Clc1cc2c(c(-c3ccnc4cc(Cl)ccc34)c1)O[C@@H](c1onc3c1CNCC3)C2 [(R)-3-(5-chloro-7-(7-chloroquinolin-4-yl)-2,3-dihydrobenzofuran-2-yl)-4,5,6,7-tetrahydroisoxazolo[4,3-c]pyridine] | < 1000
CCC(O)c1cc2nccc(-c3cc(Cl)cc4c3O[C@@H](c3onc5c3CN(C)CC5)C4)c2s1 (stereo partly drawn) [drawing 1521, 1-(7-((R)-5-chloro-2-(5-methyl-4,5,6,7-tetrahydroisoxazolo[4,3-c]pyridin-3-yl)-2,3-dihydrobenzofuran-7-yl)thieno[3,2-b]pyridin-2-yl)propan-1-ol] | < 1000
N#Cc1cc2nccc(-c3cc(Cl)cc4c3O[C@@H](c3onc5c3CNCC5)C4)c2cc1F [(R)-4-(5-chloro-2-(4,5,6,7-tetrahydroisoxazolo[4,3-c]pyridin-3-yl)-2,3-dihydrobenzofuran-7-yl)-6-fluoroquinoline-7-carbonitrile] | < 1000
CC(C)CC(O)c1cc2nccc(-c3cc(Cl)cc4c3O[C@@H](c3onc5c3CNCC5)C4)c2s1 (stereo partly drawn) [1-(7-((R)-5-chloro-2-(4,5,6,7-tetrahydroisoxazolo[4,3-c]pyridin-3-yl)-2,3-dihydrobenzofuran-7-yl)thieno[3,2-b]pyridin-2-yl)-3-methylbutan-1-ol] | < 1000

Results, then the compound that gave them:

IC50 [nM] | SMILES
< 1000 | CC(=O)N(C)Cc1cc2nccc(-c3cc(Cl)cc4c3O[C@@H](C(=O)N3CCNCC3)C4)c2s1 [(R)-N-((7-(5-chloro-2-(piperazine-1-carbonyl)-2,3-dihydrobenzofuran-7-yl)thieno[3,2-b]pyridin-2-yl)methyl)-N-methylacetamide]
1000 to 10000 | O=C(C1Cc2cc(Cl)cc(-c3ccnc4[nH]ccc34)c2O1)N1CCN[C@H](CO)C1 (stereo partly drawn) [(5-chloro-7-(1H-pyrrolo[2,3-b]pyridin-4-yl)-2,3-dihydrobenzofuran-2-yl)((S)-3-(hydroxymethyl)piperazin-1-yl)methanone]
< 1000 | O=C([C@H]1Cc2cc(Cl)cc(-c3ccnc4ccoc34)c2O1)N1CCNCC1 [(R)-(5-chloro-7-(furo[3,2-b]pyridin-7-yl)-2,3-dihydrobenzofuran-2-yl)(piperazin-1-yl)methanone]
< 1000 | O=C1CN(Cc2cc3nccc(-c4cc(Cl)cc5c4O[C@@H](C(=O)N4CCNCC4)C5)c3s2)C(=O)N1 [(R)-1-((7-(5-chloro-2-(piperazine-1-carbonyl)-2,3-dihydrobenzofuran-7-yl)thieno[3,2-b]pyridin-2-yl)methyl)imidazolidine-2,4-dione]
< 1000 | CN(C)S(=O)(=O)CCc1cc2nccc(-c3cc(Cl)cc4c3O[C@@H](C(=O)N3CCNCC3)C4)c2s1 [(R)-2-(7-(5-chloro-2-(piperazine-1-carbonyl)-2,3-dihydrobenzofuran-7-yl)thieno[3,2-b]pyridin-2-yl)-N,N-dimethylethane-1-sulfonamide]
10000 to 30000 | COC(=O)c1ccc2c(-c3cc(Cl)cc4c3OC(C(=O)N3CCNCC3)C4)ccnc2c1 (centres unmarked) [methyl 4-(5-chloro-2-(piperazine-1-carbonyl)-2,3-dihydrobenzofuran-7-yl)quinoline-7-carboxylate]
< 1000 | C[C@H]1CCN(Cc2cc3nccc(-c4cc(Cl)cc5c4O[C@@H](C(=O)N4CCNCC4)C5)c3s2)C1=O [(S)-1-((7-((R)-5-chloro-2-(piperazine-1-carbonyl)-2,3-dihydrobenzofuran-7-yl)thieno[3,2-b]pyridin-2-yl)methyl)-3-methylpyrrolidin-2-one]
1000 to 10000 | O=C(C1Cc2cc(Cl)cc(-c3ccnc4[nH]ccc34)c2O1)N1CCC(c2ccccc2O)CC1 (centres unmarked) [(5-chloro-7-(1H-pyrrolo[2,3-b]pyridin-4-yl)-2,3-dihydrobenzofuran-2-yl)(4-(2-hydroxyphenyl)piperidin-1-yl)methanone]
10000 to 30000 | O=C(C1Cc2cc(Cl)cc(-c3ccnc4[nH]ccc34)c2O1)N1CCN(C2CCNCC2)CC1 (centres unmarked) [(5-chloro-7-(1H-pyrrolo[2,3-b]pyridin-4-yl)-2,3-dihydrobenzofuran-2-yl)(4-(piperidin-4-yl)piperazin-1-yl)methanone]
